Laboratory results taken from ChEMBL document CHEMBL1201862, “PubChem BioAssay data set” (2004).
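Test compounds were applied to cells in 96-well plates for 48 hours at 5 doses. GI50 marks 50% less growth.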 Active and inactive are the calls of the source. Rule as the data show it: active = GI50 up to about 1.1 µM and inactive = higher.

Key:
Experiment in all cases: NCI anticancer screen, dose series, 48 h
MOLT-4 = system: MOLT-4
SNB-19 = system: SNB-19
SNB-75 = system: SNB-75
RPMI-8226 = system: RPMI-8226
A498 = system: A498
OVCAR-8 = system: OVCAR-8
NCI-H226 = system: NCI-H226
NCI-H460 = system: NCI-H460
K562 = system: K562
COLO 205 = system: COLO 205
NCI-H23 = system: NCI-H23
HL-60 = system: HL-60
M14 = system: M14
ACHN = system: ACHN
SK-MEL-5 = system: SK-MEL-5
SF-268 = system: SF-268
U-251 = system: U-251
SF-295 = system: SF-295
HCT-15 = system: HCT-15
IGROV-1 = system: IGROV-1
SN12C = system: SN12C
SW-620 = system: SW-620
A549 = system: A549
OVCAR-5 = system: OVCAR-5
HOP-62 = system: HOP-62
786-0 = system: 786-0
TK-10 = system: TK-10
EKVX = system: EKVX
DMS-273 = system: DMS-273
OVCAR-4 = system: OVCAR-4
SK-MEL-2 = system: SK-MEL-2
KM12 = system: KM12
HT-29 = system: HT-29
DLD-1 = system: DLD-1
SNB-78 = system: SNB-78
HCT-116 = system: HCT-116
XF498 = system: XF498
NCI-H522 = system: NCI-H522
SK-OV-3 = system: SK-OV-3
OVCAR-3 = system: OVCAR-3
CCRF-CEM = system: CCRF-CEM
SK-MEL-28 = system: SK-MEL-28
UACC-257 = system: UACC-257
KM-20L2 = system: KM-20L2
SR = system: SR
M19-MEL = system: M19-MEL
UACC-62 = system: UACC-62
LOX IMVI = system: LOX IMVI
LXFL 529 = system: LXFL 529
UO-31 = system: UO-31
Malme-3M = system: Malme-3M
HCC 2998 = system: HCC 2998
SF-539 = system: SF-539
HOP-92 = system: HOP-92
CAKI-1 = system: CAKI-1
HOP-18 = system: HOP-18
DMS-114 = system: DMS-114
RXF 393 = system: RXF 393

CCC(/C=C/c1ccccc1)=N\N=C(\C=C\c1ccccc1)CC
GI50 (MOLT-4): > 100 µM (inactive)
GI50 (SNB-19): > 100 µM (inactive)
GI50 (SNB-75): > 100 µM (inactive)
GI50 (RPMI-8226): > 100 µM (inactive)
GI50 (A498): > 100 µM (inactive)
GI50 (OVCAR-8): > 100 µM (inactive)
GI50 (NCI-H226): > 100 µM (inactive)
GI50 (NCI-H460): > 100 µM (inactive)
GI50 (K562): > 100 µM (inactive)
GI50 (COLO 205): > 100 µM (inactive)
GI50 (NCI-H23): > 100 µM (inactive)
GI50 (HL-60): > 100 µM (inactive)
GI50 (M14): > 100 µM (inactive)
GI50 (ACHN): > 100 µM (inactive)
GI50 (SK-MEL-5): > 100 µM (inactive)
GI50 (SF-268): > 100 µM (inactive)
GI50 (U-251): > 100 µM (inactive)
GI50 (SF-295): > 100 µM (inactive)
GI50 (HCT-15): > 100 µM
GI50 (IGROV-1): > 100 µM (inactive)
GI50 (SN12C): > 100 µM (inactive)
GI50 (SW-620): > 100 µM (inactive)
GI50 (A549): > 100 µM (inactive)
GI50 (OVCAR-5): > 100 µM (inactive)
GI50 (HOP-62): > 100 µM (inactive)
GI50 (786-0): > 100 µM (inactive)
GI50 (TK-10): > 100 µM (inactive)
GI50 (EKVX): > 100 µM (inactive)
GI50 (DMS-273): > 100 µM (inactive)
GI50 (OVCAR-4): > 100 µM (inactive)
GI50 (SK-MEL-2): > 100 µM (inactive)
GI50 (KM12): > 100 µM (inactive)
GI50 (HT-29): > 100 µM (inactive)
GI50 (DLD-1): > 100 µM (inactive)
GI50 (SNB-78): > 100 µM (inactive)
GI50 (HCT-116): > 100 µM (inactive)
GI50 (XF498): > 100 µM (inactive)
GI50 (NCI-H522): > 100 µM (inactive)
GI50 (SK-OV-3): > 100 µM (inactive)
GI50 (OVCAR-3): > 100 µM (inactive)
GI50 (CCRF-CEM): > 100 µM (inactive)
GI50 (SK-MEL-28): > 100 µM (inactive)
GI50 (UACC-257): > 100 µM (inactive)
GI50 (KM-20L2): > 100 µM (inactive)
GI50 (SR): > 100 µM (inactive)
GI50 (M19-MEL): > 100 µM (inactive)
GI50 (UACC-62): > 100 µM (inactive)
GI50 (LOX IMVI): > 100 µM (inactive)
GI50 (LXFL 529): > 100 µM (inactive)
GI50 (UO-31): > 100 µM (inactive)
GI50 (Malme-3M): > 100 µM (inactive)
GI50 (HCC 2998): > 100 µM (inactive)

O=c1c2ccccc2nc(-c2ccccc2)n1NC(=S)Nc1ccc(Cl)cc1
GI50 (SF-539): > 100 µM (inactive)
GI50 (MOLT-4): 69 µM (inactive)
GI50 (SNB-75): 59.4 µM (inactive)
GI50 (RPMI-8226): 69.7 µM (inactive)
GI50 (A498): > 100 µM (inactive)
GI50 (OVCAR-8): > 100 µM (inactive)
GI50 (NCI-H226): 96.6 µM (inactive)
GI50 (NCI-H460): 59.4 µM (inactive)
GI50 (K562): 48.4 µM (inactive)
GI50 (COLO 205): > 100 µM (inactive)
GI50 (NCI-H23): 53.6 µM (inactive)
GI50 (HL-60): 56.9 µM (inactive)
GI50 (HOP-92): > 100 µM (inactive)
GI50 (M14): > 100 µM (inactive)
GI50 (ACHN): 77.1 µM (inactive)
GI50 (SK-MEL-5): 36.9 µM (inactive)
GI50 (SF-268): > 100 µM (inactive)
GI50 (U-251): > 100 µM (inactive)
GI50 (SF-295): > 100 µM (inactive)
GI50 (CAKI-1): > 100 µM (inactive)
GI50 (HOP-18): > 100 µM (inactive)
GI50 (HCT-15): > 100 µM
GI50 (IGROV-1): > 100 µM (inactive)
GI50 (DMS-114): 34.4 µM (inactive)
GI50 (SN12C): > 100 µM (inactive)
GI50 (SW-620): > 100 µM (inactive)
GI50 (A549): 59.7 µM (inactive)
GI50 (OVCAR-5): > 100 µM (inactive)
GI50 (HOP-62): > 100 µM (inactive)
GI50 (786-0): > 100 µM (inactive)
GI50 (TK-10): > 100 µM (inactive)
GI50 (DMS-273): > 100 µM (inactive)
GI50 (OVCAR-4): 74.3 µM (inactive)
GI50 (SK-MEL-2): > 100 µM (inactive)
GI50 (KM12): 85.9 µM (inactive)
GI50 (HT-29): 53.8 µM (inactive)
GI50 (DLD-1): > 100 µM (inactive)
GI50 (HCT-116): 55.1 µM (inactive)
GI50 (NCI-H522): 34.7 µM (inactive)
GI50 (SK-OV-3): > 100 µM (inactive)
GI50 (CCRF-CEM): 58.3 µM (inactive)
GI50 (SK-MEL-28): 24.1 µM (inactive)
GI50 (RXF 393): 41.9 µM (inactive)
GI50 (UACC-257): 75.9 µM (inactive)
GI50 (SR): 65.9 µM (inactive)
GI50 (M19-MEL): 52.6 µM (inactive)
GI50 (UACC-62): 55.2 µM (inactive)
GI50 (LOX IMVI): > 100 µM (inactive)
GI50 (LXFL 529): 48.6 µM (inactive)
GI50 (UO-31): 61.5 µM (inactive)
GI50 (Malme-3M): > 100 µM (inactive)

CCOc1ccc2[nH]c3c(C)c4cc[n+](C)cc4c(C)c3c2c1
GI50 (SF-539): 0.65 µM (active)
GI50 (RPMI-8226): 18.3 µM (inactive)
GI50 (NCI-H226): 0.451 µM (active)
GI50 (NCI-H460): 1.89 µM (inactive)
GI50 (K562): 2.1 µM (inactive)
GI50 (NCI-H23): 0.838 µM (active)
GI50 (HL-60): 7.85 µM (inactive)
GI50 (HOP-92): 2.5 µM (inactive)
GI50 (M14): 8.41 µM (inactive)
GI50 (SK-MEL-5): 1.55 µM (inactive)
GI50 (SF-268): 0.271 µM (active)
GI50 (U-251): 0.228 µM (active)
GI50 (SF-295): 0.25 µM (active)
GI50 (HOP-18): 4.03 µM (inactive)
GI50 (IGROV-1): 2.25 µM (inactive)
GI50 (SN12C): 0.279 µM (active)
GI50 (SW-620): 2.05 µM (inactive)
GI50 (A549): 1.95 µM (inactive)
GI50 (786-0): 0.255 µM (active)
GI50 (EKVX): 4.24 µM (inactive)
GI50 (OVCAR-4): 3.61 µM (inactive)
GI50 (SK-MEL-2): 2.42 µM (inactive)
GI50 (KM12): 2.4 µM (inactive)
GI50 (HT-29): 3.99 µM (inactive)
GI50 (DLD-1): 1.66 µM (inactive)
GI50 (SNB-78): 0.662 µM (active)
GI50 (HCT-116): 3 µM (inactive)
GI50 (NCI-H522): 1.11 µM (active)
GI50 (SK-OV-3): 2.92 µM (inactive)
GI50 (OVCAR-3): 3.93 µM (inactive)
GI50 (CCRF-CEM): 2.88 µM (inactive)
GI50 (SK-MEL-28): 3.1 µM (inactive)
GI50 (RXF 393): 8.71 µM (inactive)
GI50 (UACC-257): 4.25 µM (inactive)
GI50 (KM-20L2): 4.95 µM (inactive)
GI50 (UACC-62): 2.77 µM (inactive)
GI50 (LXFL 529): 0.348 µM (active)
GI50 (UO-31): 20.9 µM (inactive)
GI50 (HCC 2998): 3.27 µM (inactive)
